ChEMBL document CHEMBL1155823, “The effect of 5-alkyl modification on the biological activity of pyrrolo[2,3-d]pyrimidine containing classical and nonclassical antifolates as inhibitors of dihydrofolate reductase and as antitumor and/or antiopportunistic infection agents” (J Med Chem, 2008)

How the values were obtained:
Thymidylate synthase [1] = molecular target: T1, Thymidylate synthase (Homo sapiens, UniProt P04818); experiment: Inhibition of human thymidylate synthase
Target sequence in this assay (P04818 whole entry): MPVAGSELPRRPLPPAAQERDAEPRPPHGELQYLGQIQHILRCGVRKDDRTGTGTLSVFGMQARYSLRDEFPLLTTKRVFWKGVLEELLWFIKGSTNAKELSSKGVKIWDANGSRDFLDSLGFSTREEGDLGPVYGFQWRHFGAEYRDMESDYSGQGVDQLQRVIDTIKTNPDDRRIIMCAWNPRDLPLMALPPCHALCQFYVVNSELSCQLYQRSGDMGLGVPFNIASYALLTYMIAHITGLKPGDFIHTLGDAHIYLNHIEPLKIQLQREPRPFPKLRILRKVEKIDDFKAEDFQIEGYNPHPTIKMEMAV

Thymidylate synthase [2] = molecular target: T1, Thymidylate synthase; experiment: Inhibition of human thymidylate synthase at >[…] uM
Target sequence in this assay (P04818 2-313 limits assumed): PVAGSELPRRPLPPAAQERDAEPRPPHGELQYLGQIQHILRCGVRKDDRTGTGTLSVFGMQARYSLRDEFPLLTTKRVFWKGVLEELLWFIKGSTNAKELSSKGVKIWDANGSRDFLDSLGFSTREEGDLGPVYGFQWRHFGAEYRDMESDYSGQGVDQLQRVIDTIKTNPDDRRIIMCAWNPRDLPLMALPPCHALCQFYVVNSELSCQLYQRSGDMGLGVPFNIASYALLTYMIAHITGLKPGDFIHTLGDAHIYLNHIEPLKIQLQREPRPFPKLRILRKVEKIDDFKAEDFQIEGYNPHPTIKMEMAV

Thymidylate synthase [3] = molecular target: Thymidylate synthase (Escherichia coli, UniProt C3SWJ7); experiment: Inhibition of Escherichia coli thymidylate synthase
[4] = molecular target: Thymidylate synthase (Escherichia coli) (UniProt C3SWJ7); experiment: Inhibition of Escherichia coli thymidylate synthase at >[…] uM
[5] = molecular target: T2, Bifunctional dihydrofolate reductase-thymidylate synthase (Toxoplasma gondii, UniProt Q07422); experiment: Inhibition of Toxoplasma gondii thymidylate synthase
T2 sequence (Q07422 whole entry): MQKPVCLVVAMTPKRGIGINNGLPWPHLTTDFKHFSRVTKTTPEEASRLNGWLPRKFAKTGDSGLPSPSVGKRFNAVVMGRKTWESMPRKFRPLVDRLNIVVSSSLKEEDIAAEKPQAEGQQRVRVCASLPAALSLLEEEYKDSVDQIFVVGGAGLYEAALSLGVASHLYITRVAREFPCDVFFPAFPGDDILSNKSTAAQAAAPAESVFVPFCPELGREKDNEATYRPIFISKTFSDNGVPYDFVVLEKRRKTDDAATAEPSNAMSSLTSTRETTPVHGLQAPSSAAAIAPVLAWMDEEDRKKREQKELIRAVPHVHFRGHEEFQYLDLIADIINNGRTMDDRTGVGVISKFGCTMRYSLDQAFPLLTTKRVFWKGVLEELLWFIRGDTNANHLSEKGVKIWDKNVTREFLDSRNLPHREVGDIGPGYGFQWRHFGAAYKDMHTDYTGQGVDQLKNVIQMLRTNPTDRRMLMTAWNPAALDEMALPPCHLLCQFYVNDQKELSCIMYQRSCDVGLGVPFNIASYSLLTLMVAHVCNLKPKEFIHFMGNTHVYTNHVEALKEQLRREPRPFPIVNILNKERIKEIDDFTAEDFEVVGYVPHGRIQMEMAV

[6] = molecular target: T3, Dihydrofolate reductase (Homo sapiens) (UniProt P00374); experiment: Inhibition of human dihydrofolate reductase at >[…] uM
T3 sequence (whole entry): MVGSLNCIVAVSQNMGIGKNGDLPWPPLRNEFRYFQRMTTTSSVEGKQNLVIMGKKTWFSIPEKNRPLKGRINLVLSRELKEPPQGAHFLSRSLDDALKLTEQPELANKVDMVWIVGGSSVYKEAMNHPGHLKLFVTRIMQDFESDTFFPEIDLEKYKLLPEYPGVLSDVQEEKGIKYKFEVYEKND

[7] = molecular target: T2, Bifunctional dihydrofolate reductase-thymidylate synthase; experiment: Inhibition of Toxoplasma gondii dihydrofolate reductase
Dihydrofolate reductase [8] = molecular target: T4, Dihydrofolate reductase (Homo sapiens, UniProt P00374)
T4 sequence (P00374 whole entry): T3 sequence (whole entry)

Dihydrofolate reductase [9] = molecular target: T5, Dihydrofolate reductase (Pneumocystis carinii, UniProt P16184)
T5 sequence (P16184 whole entry): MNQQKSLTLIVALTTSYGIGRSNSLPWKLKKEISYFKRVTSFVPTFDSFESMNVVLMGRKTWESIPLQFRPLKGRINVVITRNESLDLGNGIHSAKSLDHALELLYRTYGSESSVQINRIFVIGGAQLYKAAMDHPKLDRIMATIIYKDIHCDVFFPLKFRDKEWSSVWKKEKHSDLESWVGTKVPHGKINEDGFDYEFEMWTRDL
Description: (§1) Inhibition of Pneumocystis carinii DHFR using dihydrofolic acid substrate and NADPH cofactor

Dihydrofolate reductase [10] = molecular target: T6, Dihydrofolate reductase (Rattus norvegicus, UniProt Q920D2)
T6 sequence (Q920D2 whole entry): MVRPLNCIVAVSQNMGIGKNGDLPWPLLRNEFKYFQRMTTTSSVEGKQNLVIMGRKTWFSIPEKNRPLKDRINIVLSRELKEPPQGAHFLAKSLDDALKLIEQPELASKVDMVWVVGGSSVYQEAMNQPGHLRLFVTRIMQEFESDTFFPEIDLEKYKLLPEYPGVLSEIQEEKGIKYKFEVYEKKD

[11] = molecular target: T7, Bifunctional dihydrofolate reductase-thymidylate synthase (Toxoplasma gondii) (UniProt Q07422); experiment: Inhibition of Toxoplasma gondii thymidylate synthase at >[…] uM
T7 sequence (whole entry): T2 sequence (Q07422 whole entry)

[12] = molecular target: T3, Dihydrofolate reductase (Homo sapiens); experiment: Inhibition of human dihydrofolate reductase at >30 uM
Thymidylate synthase [13] = molecular target: T1, Thymidylate synthase; experiment: Inhibition of human thymidylate synthase at >23 uM
Target sequence in this assay (P04818 2-313 limits assumed): as the sequence (P04818 2-313 limits assumed) above

[14] = molecular target: T3, Dihydrofolate reductase (Homo sapiens); experiment: Inhibition of human dihydrofolate reductase at >28 uM
Dihydrofolate reductase [15] = molecular target: T5, Dihydrofolate reductase; remark: listed apart in the source
Description: as §1

Dihydrofolate reductase [16] = molecular target: T6, Dihydrofolate reductase; remark: listed apart in the source
[17] = molecular target: Dihydrofolate reductase (Pneumocystis carinii) (UniProt P16184); experiment: Inhibition of Pneumocystis carinii DHFR at 22 uM using dihydrofolic acid substrate and NADPH cofactor
Thymidylate synthase [18] = molecular target: T1, Thymidylate synthase; experiment: Inhibition of human thymidylate synthase at >14 uM
Target sequence in this assay (P04818 2-313 limits assumed): as the sequence (P04818 2-313 limits assumed) above

[19] = molecular target: Thymidylate synthase (Escherichia coli) (UniProt C3SWJ7); experiment: Inhibition of Escherichia coli thymidylate synthase at >14 uM
[20] = molecular target: Dihydrofolate reductase (Pneumocystis carinii) (UniProt P16184); experiment: Inhibition of Pneumocystis carinii DHFR at […] using dihydrofolic acid substrate and NADPH cofactor

Sequence of Thymidylate synthase (Escherichia coli) (C3SWJ7 1-264): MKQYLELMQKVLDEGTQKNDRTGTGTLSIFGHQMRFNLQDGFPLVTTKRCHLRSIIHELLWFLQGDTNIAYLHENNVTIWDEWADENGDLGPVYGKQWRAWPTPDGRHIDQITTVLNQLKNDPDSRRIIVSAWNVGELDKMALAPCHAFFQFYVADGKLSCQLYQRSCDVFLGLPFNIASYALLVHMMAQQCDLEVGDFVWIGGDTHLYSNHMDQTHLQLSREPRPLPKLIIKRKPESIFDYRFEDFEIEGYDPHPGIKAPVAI
Sequence of Thymidylate synthase (Escherichia coli, UniProt C3SWJ7) (C3SWJ7 whole entry): as the sequence (C3SWJ7 1-264) above

Row | Compound | IC50 (Thymidylate synthase [1]) | inhibition (Thymidylate synthase [2]) | IC50 (Thymidylate synthase [3]) | inhibition [4] | IC50 [5] | inhibition [6] | IC50 [7] | IC50 (Dihydrofolate reductase [8]) | IC50 (Dihydrofolate reductase [9]) | IC50 (Dihydrofolate reductase [10]) | inhibition [11] | inhibition [12] | inhibition (Thymidylate synthase [13]) | inhibition [14] | IC50 (Dihydrofolate reductase [15]) | IC50 (Dihydrofolate reductase [16]) | inhibition [17] | inhibition (Thymidylate synthase [18]) | inhibition [19] | inhibition [20]
1 | CCCc1c(Sc2ccc(OC)c(OC)c2)[nH]c2nc(N)nc(N)c12 | > 11 µM | 0% | > 11 µM | 0% | > 11 µM | 35% | 1 µM | > 26 µM | 8.45 µM | 3.45 µM |  |  |  |  |  |  |  |  |  | 
2 | Cc1cccc(C)c1Sc1[nH]c2nc(N)nc(N)c2c1C(C)C | > 13 µM |  | > 13 µM | 0% | > 13 µM |  | 0.3 µM | > 30 µM |  | 14.8 µM | 0% | 10% |  |  |  |  |  |  |  | 
3 | COc1ccc(OC)c(Cc2sc3nc(N)nc(N)c3c2C)c1 |  |  |  |  |  |  | 0.07 µM |  |  |  |  |  |  |  |  |  |  |  |  | 
4 | COc1ccc(OC)c(Sc2[nH]c3nc(N)nc(N)c3c2C(C)C)c1 | > 23 µM |  | > 2.3 µM | 0% | > 2.3 µM |  | 1.4 µM | > 28 µM | 35.6 µM | 50.3 µM | 0% |  | 0% | 0% |  |  |  |  |  | 
5 | CCCc1c(Sc2c(Cl)cccc2Cl)[nH]c2nc(N)nc(N)c12 | > 22 µM |  | > 22 µM | 0% |  |  |  | 2.6 µM | 5.35 µM | 5.95 µM |  |  |  |  |  |  |  |  |  | 
6 | COc1ccc(Sc2[nH]c3nc(N)nc(N)c3c2C(C)C)cc1 | > 25 µM |  | > 2.5 µM | 0% | > 2.5 µM |  | 0.6 µM | 30 µM |  | 1.9 µM |  |  |  |  |  |  |  |  |  | 
7 | CCc1c(Sc2ccccc2)[nH]c2nc(N)nc(N)c12 |  |  |  |  |  |  |  |  |  |  |  |  |  |  | 21.8 µM | 5.6 µM |  |  |  | 
8 | CCc1c(Sc2cc(OC)ccc2OC)[nH]c2nc(N)nc(N)c12 |  |  |  |  |  |  |  |  |  |  |  |  |  |  | 6.04 µM | 4.05 µM |  |  |  | 
9 | CC(C)c1c(Sc2c(Cl)cccc2Cl)[nH]c2nc(N)nc(N)c12 | > 22 µM |  | > 2.2 µM |  | > 2.2 µM | 37% | 0.52 µM | > 26 µM |  | 2.4 µM |  |  |  |  | 22 µM |  | 14% |  |  | 
10 | CCCc1c(Sc2ccccc2)[nH]c2nc(N)nc(N)c12 | > 14 µM |  | > 14 µM |  | > 1.4 µM |  | 0.12 µM | 33 µM | 4.21 µM |  |  |  |  |  |  |  |  | 0% | 0% | 
11 | CC(C)c1c(Sc2cccc3ccccc23)[nH]c2nc(N)nc(N)c12 | > 12 µM | 0% | > 12 µM |  | > 12 µM |  | 0.12 µM | > 29 µM | 0.68 µM | 0.91 µM | 0% |  |  |  |  |  |  |  |  | 
12 | CCCc1c(Sc2cccc3ccccc23)[nH]c2nc(N)nc(N)c12 | > 12 µM | 0% | > 12 µM |  | > 12 µM |  | 0.058 µM | > 29 µM | 8.6 µM | 6.5 µM | 16% |  |  |  |  |  |  |  |  | 
13 | CC(C)c1c(Sc2ccccc2)[nH]c2nc(N)nc(N)c12 | > 27 µM | 0% | > 2.7 µM | 0% | > 2.7 µM |  | 0.064 µM | 16 µM | 11.2 µM | 2 µM | 0% |  |  |  |  |  |  |  |  | 
14 | CCCc1c(Sc2c(C)cccc2C)[nH]c2nc(N)nc(N)c12 | > 24 µM |  | > 24 µM |  |  |  |  | 3 µM | 5.32 µM | 2.43 µM |  |  |  |  |  |  |  |  |  | 
15 | CC(C)c1c(Sc2ccc3ccccc3c2)[nH]c2nc(N)nc(N)c12 | > 24 µM | 39% | > 2.4 µM | 0% | > 2.4 µM |  | 1.5 µM | > 29 µM | 7.1 µM | 2.1 µM |  |  |  |  |  |  |  |  |  | 
16 | CCCc1c(Sc2ccc3ccccc3c2)[nH]c2nc(N)nc(N)c12 | > 12 µM | 0% | > 12 µM |  | > 15 µM | 30% | 0.15 µM | > 15 µM |  | 3.8 µM |  |  |  |  | 3.5 µM |  |  |  |  | 16%
17 | COc1ccc(Sc2[nH]c3nc(N)nc(N)c3c2C(C)C)cc1OC | > 23 µM |  | > 2.3 µM | 0% | > 2.3 µM |  | 2.7 µM | 27 µM | 28.2 µM | 4.6 µM | 0% |  | 0% |  |  |  |  |  |  | 
18 | CC(C)c1c(Sc2ccc(Cl)c(Cl)c2)[nH]c2nc(N)nc(N)c12 | > 23 µM |  | > 2.3 µM | 0% | > 2.3 µM | 0% | 1.4 µM | > 27 µM | 10.9 µM | 13.5 µM | 0% |  | 14% |  |  |  |  |  |  | 
19 | CCCc1c(Sc2ccc(OC)cc2)[nH]c2nc(N)nc(N)c12 | > 13 µM |  | > 13 µM | 0% | > 13 µM |  | 0.23 µM | > 30 µM | 4.21 µM | 1.25 µM | 12% | 15% |  |  |  |  |  |  |  | 
20 | CCCc1c(Sc2cc(OC)ccc2OC)[nH]c2nc(N)nc(N)c12 |  | 0% | > 12 µM |  |  |  |  | > 28 µM | 10.4 µM | 8.9 µM | 0% |  |  | 13% |  |  |  |  |  | 
